The nature of this series: Tissue distribution of selenium-75-labelled sterols in rats, sixth day post-injection. The class given is in vivo, rats of the C.F.Y. strain. As to conditions: tail vein, dose: 1, 7: 40 μCi, 6: 50 μCi, 3: 30 μCi, 4: 1.5 μCi, 5: 10 μCi, 8: 6.3 μCi; for % dose kg./g. in Ovaries: female rats; for % dose kg./g. in Adrenals / % dose kg./g. in Blood / % dose kg./g. in Kidneys / % dose kg./g. in Liver / % dose kg./g. in Muscle: male and female rats; for % dose kg./g. in Testes: male rats; for Concentration Ratio; Adrenals: Kidneys / Concentration Ratio; Adrenals: Liver / Concentration Ratio; Adrenals: Muscle / Concentration Ratio; Adrenals: Ovaries / Concentration Ratio; Adrenals: Testes / Concentration Ratio; Adrenals: Blood: rats; for Concentration Ratio; Adrenals: Blood: 8640 min. The method, then: The tissue distribution and target to non-target concentration ratios for seven compounds were studied in male and female rats (150-180 g) of the C.F.Y. strain. Each compound (in a volume of 0.3ml) was injected via the tail vein into two male and two female rats. The animals were then housed in separate metabolism cages prior to sacrifice and dissecting on the sixth day post-injection.

The structures appear in SMILES notation.

The values below come from patent US4083947A, “Organ visualization” (The Radiochemical Centre Limited, priority 1975, dated 1978).

For `CCCC[75Se]C[C@@H]1C[C@@H]2[C@H](CC[C@]3(C)[C@@H]([C@H](C)CCCC(C)C)CC[C@@H]23)C2=C1C[C@@H](O)CC2` [Example 3, 6β-butylselenomethyl-19-norcholest-5(10)-en-3β-ol-^75 Se], the “% dose kg./g. in Ovaries” value is reported as 2.553 % dose kg./g, the “% dose kg./g. in Adrenals” value stood at 7.563 % dose kg./g, the “% dose kg./g. in Blood” value was determined as 0.009 % dose kg./g and the “% dose kg./g. in Kidneys” value is given as 0.052 % dose kg./g. Also, the “% dose kg./g. in Liver” value was 0.096 % dose kg./g, the “% dose kg./g. in Muscle” value stood at 0.012 % dose kg./g, the “% dose kg./g. in Testes” value is 0.023 % dose kg./g and the “Concentration Ratio; Adrenals: Kidneys” value turned out to be 144.8. The “Concentration Ratio; Adrenals: Liver” value is on record as 79.0, the “Concentration Ratio; Adrenals: Muscle” value is recorded as 809.6, the “Concentration Ratio; Adrenals: Ovaries” value was 4.0 and the “Concentration Ratio; Adrenals: Testes” value is 268.3. Moreover, the “Concentration Ratio; Adrenals: Blood” value was determined as 581.9.
For the compound `CC(C)CCC[C@@H](C)[C@H]1CC[C@H]2[C@@H]3C[C@@H](C[75Se]C4CCCCC4)C4=C(CC[C@H](O)C4)[C@H]3CC[C@]12C` [Example 4, 6β-cyclohexylselenomethyl-19-norcholest-5(10)-en-3β-ol-^75 Se], the “% dose kg./g. in Ovaries” value is 2.568 % dose kg./g, the “% dose kg./g. in Adrenals” value is on record as 3.609 % dose kg./g, the “% dose kg./g. in Blood” value was 0.026 % dose kg./g and the “% dose kg./g. in Kidneys” value was found to be 0.038 % dose kg./g. For the same compound, the “% dose kg./g. in Liver” value came out at 0.148 % dose kg./g, the “% dose kg./g. in Muscle” value came to 0.012 % dose kg./g, the “% dose kg./g. in Testes” value is reported as 0.034 % dose kg./g and the “Concentration Ratio; Adrenals: Kidneys” value was determined as 75.1. In addition, the “Concentration Ratio; Adrenals: Liver” value was 24.9, the “Concentration Ratio; Adrenals: Muscle” value is given as 303.1, the “Concentration Ratio; Adrenals: Ovaries” value turned out to be 1.6 and the “Concentration Ratio; Adrenals: Testes” value came to 89.8. Further, the “Concentration Ratio; Adrenals: Blood” value was 137.4.
On to `CC(C)CCC[C@@H](C)[C@H]1CC[C@H]2[C@@H]3C[C@@H](C[75Se]Cc4ccccc4)C4=C(CC[C@H](O)C4)[C@H]3CC[C@]12C` [Example 5, 6β-benzylselenomethyl-19-norcholest-5(10)-en-3β-ol-^75 Se], for which the “% dose kg./g. in Ovaries” value was 2.425 % dose kg./g, the “% dose kg./g. in Adrenals” value is given as 5.286 % dose kg./g, the “% dose kg./g. in Blood” value was 0.042 % dose kg./g and the “% dose kg./g. in Kidneys” value was 0.083 % dose kg./g. For the same compound, the “% dose kg./g. in Liver” value was found to be 0.393 % dose kg./g, the “% dose kg./g. in Muscle” value is 0.015 % dose kg./g, the “% dose kg./g. in Testes” value is 0.042 % dose kg./g and the “Concentration Ratio; Adrenals: Kidneys” value came to 63.4. Besides, the “Concentration Ratio; Adrenals: Liver” value came out at 13.4, the “Concentration Ratio; Adrenals: Muscle” value turned out to be 355.3, the “Concentration Ratio; Adrenals: Ovaries” value was determined as 2.6 and the “Concentration Ratio; Adrenals: Testes” value is 101.4. Moreover, the “Concentration Ratio; Adrenals: Blood” value was 126.3.
Consider `C[75Se]C[C@@H]1C[C@@H]2[C@H](CC[C@]3(C)[C@@H]([C@H](C)CCCC(C)C)CC[C@@H]23)C2=C1C[C@@H](OC(C)=O)CC2` [Example 6, 6β-methylselenomethyl-19-norcholest-5(10)-en-3β-ol-acetate-^75 Se], for which the “% dose kg./g. in Ovaries” value stood at 3.232 % dose kg./g, the “% dose kg./g. in Adrenals” value is 12.561 % dose kg./g, the “% dose kg./g. in Blood” value is 0.025 % dose kg./g and the “% dose kg./g. in Kidneys” value is 0.108 % dose kg./g. Moreover, the “% dose kg./g. in Liver” value stood at 0.074 % dose kg./g, the “% dose kg./g. in Muscle” value came to 0.022 % dose kg./g, the “% dose kg./g. in Testes” value was 0.041 % dose kg./g and the “Concentration Ratio; Adrenals: Kidneys” value is recorded as 116.0. For the same compound, the “Concentration Ratio; Adrenals: Liver” value was found to be 161.1, the “Concentration Ratio; Adrenals: Muscle” value is 536.3, the “Concentration Ratio; Adrenals: Ovaries” value amounted to 5.7 and the “Concentration Ratio; Adrenals: Testes” value came to 166.4. Further, the “Concentration Ratio; Adrenals: Blood” value came to 469.2.
With `CC(C)CCC[C@@H](C)[C@H]1CC[C@H]2[C@@H]3C[C@@H](C[75Se](C)=O)C4=C(CC[C@H](O)C4)[C@H]3CC[C@]12C` (stereo partly drawn) [Example 7, 6β-methylselenomethyl-19-norcholest-5(10)-en-3β-olselenoxide-^75 Se], the “% dose kg./g. in Ovaries” value was determined as 0.817 % dose kg./g, the “% dose kg./g. in Adrenals” value is on record as 4.284 % dose kg./g, the “% dose kg./g. in Blood” value came to 0.022 % dose kg./g and the “% dose kg./g. in Kidneys” value stood at 0.087 % dose kg./g. Also, the “% dose kg./g. in Liver” value turned out to be 0.091 % dose kg./g, the “% dose kg./g. in Muscle” value amounted to 0.016 % dose kg./g, the “% dose kg./g. in Testes” value came out at 0.046 % dose kg./g and the “Concentration Ratio; Adrenals: Kidneys” value is recorded as 49.5. The “Concentration Ratio; Adrenals: Liver” value came out at 48.3, the “Concentration Ratio; Adrenals: Muscle” value turned out to be 274, the “Concentration Ratio; Adrenals: Ovaries” value is 5.1 and the “Concentration Ratio; Adrenals: Testes” value was 95.2. In addition, the “Concentration Ratio; Adrenals: Blood” value turned out to be 202.
`CC(C)CCC[C@@H](C)[C@H]1CC[C@H]2[C@@H]3C[C@@H](C[75Se]c4ccccc4)C4=C(CC[C@H](O)C4)[C@H]3CC[C@]12C` [Example 8, 6β-phenylselenomethyl-19-norcholest-5(10)-en-3β-ol-^75 Se]: the “% dose kg./g. in Ovaries” value was 2.578 % dose kg./g, the “% dose kg./g. in Adrenals” value is reported as 5.934 % dose kg./g, the “% dose kg./g. in Blood” value was determined as 0.021 % dose kg./g and the “% dose kg./g. in Kidneys” value was 0.062 % dose kg./g. Also, the “% dose kg./g. in Liver” value was found to be 0.144 % dose kg./g, the “% dose kg./g. in Muscle” value came out at 0.015 % dose kg./g, the “% dose kg./g. in Testes” value was 0.039 % dose kg./g and the “Concentration Ratio; Adrenals: Kidneys” value is given as 109.1. In addition, the “Concentration Ratio; Adrenals: Liver” value amounted to 40.0, the “Concentration Ratio; Adrenals: Muscle” value came to 418.9, the “Concentration Ratio; Adrenals: Ovaries” value is reported as 3.62 and the “Concentration Ratio; Adrenals: Testes” value was 171.2. Besides, the “Concentration Ratio; Adrenals: Blood” value stood at 285.8.
